Source: US12630560B2, “Solid forms, pharmaceutical compositions and preparation of heteroaromatic macrocyclic ether compounds” (Nuvalent, Inc., priority 2021, dated 2026)
Structures can show the parent of a compound that is named as a salt. Values belong to the molecule of their own block, whether it stands above or below them.

Columns and labels:
Assay type in all cases: physicochemical
[1] = Stability study of Compound 1 (Form 1) drug substance at three storage conditions
Protocol: A stability study was conducted for Compound 1 (Form 1) at three storage conditions: (1) 5° C.±3° C., ambient relative humidity (RH), data collected at 0 and 1 month; (2) 25° C.±2° C., 60%±5% RH, data collected at 0, 1, 3, 6, 9, and 12 months; and (3) 40° C.±2° C., 75%±5% RH, data collected at 0, 1, 3, and 6 months.

[2] = Dynamic vapour sorption (DVS); details: for weight increase (DVS): relative humidity from about 0 to about 90%, about 25° C.
Protocol: Approximately, 10-20 mg of sample was placed into a mesh vapour sorption balance pan and loaded into a DVS Advantage dynamic vapour sorption balance by Surface Measurement Systems. The sample was subjected to a ramping profile from 40-90% relative humidity (RH) at 10% increments, maintaining the sample at each step until a stable weight had been achieved (dm/dt 0.004%, minimum step length 30 minutes, maximum step length 500 minutes) at 25° C. After completion of the sorption cycle, the sample was dried using the same procedure to 0% RH and then a second sorption cycle back to 40% RH. Two cycles were performed. The weight change during the sorption/desorption cycles were plotted, allowing for the hygroscopic nature of the sample to be determined. XRPD analysis was then carried out on any solid retained.

[3] = Compression test at 100 and 250 MPa (XRPD after compression)
Protocol: Approximately 100 mg of Form 1 of Compound 1 was placed inside a FT-IR press, and a pressure of 100 MPa was applied and held for 60 seconds. The resulting material was analyzed by XRPD.
Approximately 100 mg of Form 1 of Compound 1 was placed inside the apparatus of the compression clamp. This apparatus was placed inside the compression clamp and a pressure of 250 MPa was applied and hold for 60 seconds. The resulting material was analyzed by XRPD.

[4] = 7-days stability studies of solid forms (storage, then XRPD and HPLC)
Protocol: Form 1 of Compound 1: Method. About 10 mg of Form 1 of Compound 1 was placed in a 2 ml vial and stored for 7 days under the following conditions: A) 40° C./75% RH (open vial); B) 25° C./60% RH (open vial); C) 80° C. (sealed vial). Solids were analyzed by XRPD and submitted for HPLC.
Form 2 of Compound 1: Method. Portions of Form 1 of Compound 1 (10 mg) were placed in 1.5 ml vials. One vial was stored for 7 days under each of the following conditions: A) 40° C./75% RH (open vial); B) 25° C./60% RH (open vial); C) 80° C. (sealed vial). Solids were analyzed by XRPD and submitted for HPLC.

[5] = Stability studies of Form A of a besylate salt (XRPD); details: 40° C. and 75% RH for 7 days
From the text: No changes in form were observed by XRPD.

- weight increase (DVS) [2]: about 0.27%
Structure (SMILES): CCn1ncc2c1-c1cnc(N)c(c1)O[C@H](C)c1cc(F)ccc1-c1nn(C)nc1C2 [Form 7]

- hygroscopicity [2]: hygroscopic
- weight increase (DVS) [2]: about 2%
- weight increase (DVS) ([2]; listed as Form A of a Besylate Salt of Compound 1): 2%
- physical stability (form by XRPD) [5]: physically stable
Structure (SMILES): CCn1ncc2c1-c1cnc(N)c(c1)O[C@H](C)c1cc(F)ccc1-c1nn(C)nc1C2 [Form A of a besylate salt of Compound 1]

The remaining lines, values behind:

Structure (SMILES): CCn1ncc2c1-c1cnc(N)c(c1)O[C@H](C)c1cc(F)ccc1-c1nn(C)nc1C2 [Compound 1]
- chemical and physical stability (description, assay, related substances, water content, polymorphic form, chiral purity) ([1]; 25° C.±2° C./60%±5% RH, 12 months): No meaningful changes
- chemical and physical stability (description, assay, related substances, water content, polymorphic form, chiral purity) ([1]; 40° C.±2° C./75%±5% RH, 6 months): No meaningful changes
- compliance with acceptance criteria (purity at least 97%, individual impurities ≤0.2%, total ≤2.0%, enantiomeric purity at least 99.5%, Form 1) ([1]; all time points): complied with the acceptance criteria

Structure (SMILES): CCn1ncc2c1-c1cnc(N)c(c1)O[C@H](C)c1cc(F)ccc1-c1nn(C)nc1C2 [Form 1 of Compound 1]
- hygroscopicity [2]: non-hygroscopic
- weight increase (DVS) [2]: about 0.25%
- stability to compression (crystalline form by XRPD) ([3]; 100 MPa for 60 seconds): stable
- stability to compression (crystalline form by XRPD) ([3]; 250 MPa for 60 seconds): stable
- % Purity by HPLC ([4]; 25° C./60% RH (open vial), 7 days): 99.58%
- % Purity by HPLC ([4]; 40° C./75% RH (open vial), 7 days): 99.66%
- % Purity by HPLC ([4]; 80° C. (sealed vial), 7 days): 99.58%
- stability of the solid form ([4]; all tested conditions (40° C./75% RH, 25° C./60% RH, 80° C.), 7 days): stable under all tested conditions
- purity by HPLC after storage ([4]; all three samples: 40° C./75% RH, 25° C./60% RH, 80° C., one week): > 99.5%

Structure (SMILES): CCn1ncc2c1-c1cnc(N)c(c1)O[C@H](C)c1cc(F)ccc1-c1nn(C)nc1C2 [Form 2]
- solid form stability by XRPD ([4]; 25° C./60% RH, 7 days): stable
- solid form stability by XRPD ([4]; 40° C./75% RH, 7 days): stable
- solid form by XRPD after storage ([4]; 80° C. (sealed vial), 7 days): correspond to that for Form 7
